The subject of series [1] is M. abscessus. In words: Intrapulmonary aerosol M. abscessus infection in GM-CSF KO mice, lung CFU determination. In kind it is in vivo, Mycobacterium abscessus. The settings on record: for Log10 CFU count After 4 weeks: GM-CSF KO mice, lungs, 5 days a week for 4 weeks, at start 4.80, untreated 3.93.
For series [2] the following is noted: cited from earlier work.
The subject of series [3] is M. abscessus and M. chelonae infections. The settings on record: cited from earlier work.
For series [4] the following is noted: rat, in vivo; cited from earlier work.
The conditions of series [5]: in vivo; cited from earlier work.
For series [6] the following is noted: in vivo, cited from earlier work.
For series [7], the system named is M. abscessus. The settings on record: cited from earlier work.

As usually defined, the half-life is the time in which the quantity being followed falls by half.

On to `CN(C)c1cc(NC(=O)CNC(C)(C)C)c(O)c2c1C[C@H]1C[C@H]3[C@H](N(C)C)C(O)=C(C(N)=O)C(=O)[C@@]3(O)C(O)=C1C2=O` [tigecycline], for which the “bacterial colonies after culturing lung tissue” value in the series with M. abscessus [1] (2.5 mg cohorts, 9 out of 10 mice, 4 weeks) is recorded as “no bacterial colonies were visible”. Besides, the “log 10 CFU count of the mouse with incomplete response” value with M. abscessus [1] (2.5 mg cohorts, one mouse with abscess formation, 4 weeks) was 0.5 log 10 CFU. Further, the “Log10 CFU count After 4 weeks” value in the series on M. abscessus [1] (inhaled 0.25 mg/dose) is reported as 3.28 Log10 CFU. Further, the “Log10 CFU count After 4 weeks” value in the series with M. abscessus [1] (inhaled 1.25 mg/dose) turned out to be 0.695 Log10 CFU. Also, the “Log10 CFU count After 4 weeks” value in the series on M. abscessus [1] (inhaled 2.5 mg/dose) is listed as 0.50 Log10 CFU. In series [2], the Protein binding result is reported as “approximately 68%”. Further, in series [3] (human, in vivo, iv), the “cases with adverse events reported” value is given as “about 90%” and the “patients with serious adverse events” value is given as 29 out of 52. Moreover, the “patients who stopped tigecycline therapy early because of adverse events” value in series [3] (human, in vivo) is 27%. The patients with improvement entry in series [3] (intravenous 100 mg then 50 mg every 12 h, part of a multidrug regimen) was “about 60%”. In addition, the penetration into tissues entry in series [4] is recorded as “good penetration into tissues”. In series [5], the “dose at which gastrointestinal adverse events were dose limiting” value is recorded as 300 mg; the “nausea, share of tigecycline recipients” value is recorded as 48.5%; the “vomiting, share of tigecycline recipients” value was 29.4%. The half-life in series [6] (human) is 36 h. In addition, in series [6], the “excreted unchanged in the urine” value is given as “not more than 15%” and the volume of distribution was greater than 10 L/kg. In the series on M. abscessus [7] (at 200 mg/day, short-term inhibitory effect), the “log kill of M. abscessus” value was 1 log kill. Further, in the series on M. abscessus [7] (at higher doses), the maximum microbial kill is on record as 1.37 log10 CFU/mL.

The values are drawn from US20220233555A1, “Improved administration of glycylcyclines by inhalation” (Stichting Radboud universitair medisch centrum, priority 2019, published 2022).
